The test system of data set [1] is progenitor cells (c-kit^+,Sca-1^-). The data set can be described thus: Uptake of Pc 4, flow cytometry. It is filed as cell-based, murine. How it is done: (§1) In mixing experiments, aliquots of Ly-5.2 BM and cell lines samples were mixed at different ratios. The combined cell concentration of each sample was 1.5×10^7 cells/mL. […] The cell lines were stained with anti-Ly-5.1^FITC. This treatment allowed clear resolution of the relatively small ABE-8.1/2 and BC3A cells from the bone marrow granulocytes. Immediately prior to the analyses, propidium iodide (PI, 0.5 μg/mL) was added to the samples to allow exclusion of dead cells (PI^+) from the analyses. The samples were analyzed in a FACStar^PLUS (BD) that was equipped with an argon ion laser tuned to 488 nm (200 mW) and a dye laser tuned to 610 nm (300 mW). FITC, PE, PI and Pc 4 fluorescence emissions were collected through 530/30, 575/42, 660/10, 670/10 nm band pass filters, respectively.
(§2) Cell size. Microscopic measurements of at least 20 cells were performed using a calibrated micrometer. To determine the cell size of the BM progenitor subsets, the c-kit^+,Sca-1^- and c-kit^+,Sca-1^+ fractions were sorted. The sorted cells were centrifuged and the pellets were resuspended in a 20 μl of HBBS. Samples were deposited onto microscope slides and covered with a cover slip. Cell diameters of 7.7±0.2 (c-kit^+,Sca-1^+), 8.4±0.3 (c-kit^+,Sca-1^-), 10.9±0.2 (BC3A), 11.1±0.2 (ABE-8.1/2), 13.0±0.3 (L1210), 14.2±0.3 (P815), 15.0±0.4 μm (WEHI-3) were obtained.
A general note: Flow cytometry measures light scatter and fluorescence of single cells or particles in a stream.

Data set [2] concerns pluripotent stem cells (c-kit^+,Sca-1^+). Kind of data set: Uptake of Pc 4, flow cytometry. Type of data set: cell-based, murine. The note with it: for Pc 4 content / Pc 4 content per cell volume: 15 nM. How it is done:
as §1, §2

The next data set deals with BFU-E. Particulars: 15 nM Pc 4, 5×10^6 cells/mL, 8 J/cm^2; cited from earlier work.
For data set [3], the system named is pluripotent stem cells (Ly-5.1 donor BM in Ly-5.2 mice). Kind of data set: Bone marrow transplantation and chimerism assay. It is filed as in vivo. The note with it: for mice died two months after transplant: sub-lethally irradiated. The source says: Animals. C57B1/6 (Ly-5.2) and B6SJ-cd45 ^b pep 3^b /BOY J (Ly-5.1), were obtained from The Jackson Laboratories (Bar Harbor, Me.) and were maintained in the animal facility of the New York Blood Center. After gamma-irradiation, the animals were housed in microisolator cages and provided with autoclaved food and autoclaved acidified water (pH=3) ad libitum. Preparation of bone marrow cell suspensions--Ly-5.1 mice were used as the source of donor BM. Mice (8-10 weeks old) were killed and the BM was harvested by flushing the femoral shafts with Hank's balanced salt solution (HBSS), pH 7.4. The cell suspensions were centrifuged, washed once and the cells were finally resuspended in HBSS--10% vol/vol fetal bovine serum (FBS, Gemini Bioproducts Inc., Calabasas, Calif.).
Photosensitization. Aliquots of a 1.87 mM Pc 4 (kindly provided by Dr. M. E. Kenney) stock solution in dimethyl sulfoxide were kept at -80° C. in autoclaved brown glass vials. Immediately prior to the photosensitization, Pc4 was thawed and diluted in dimethyl formamide to yield a 10 μM working solution. […] Pc 4 was used at 15 nM throughout the experiments.
BM and cell line samples, were incubated with 15 nM Pc 4 for two hours at 37° C. at cell concentrations of 1.5×10^7 cells/mL. Aliquots of 1.5 mL were transferred to 24-well plates; separate plates were used for each sample.
Photoinactivation. The light source used was a filtered xenon short arc lamp (Versa-Light, Model UV-R6G, Medic Lightech, Ltd., Haifa, Israel). It was used to deliver red light (λ 600-700 nm) to the sensitized cells. After a 20 minute warm up period of the instrument, the distance from the light source to the bottom of the 24-well plate was adjusted to obtain a fluence rate of 26.6 mW/cm^2, as measured with a radiometer (Model IL 1350, International Light, Newburyport, Mass.). Samples were placed under the light source and were stirred during the irradiations. Before and after the irradiations, samples were kept in the dark.
Bone marrow transplantation and chimerism assay. Two month old Ly-5.2 mice were used as recipients in the BM reconstitution assays. […] The irradiated recipient Ly-5.2 mice were divided into six groups. The mice in these groups received either HBSS, untreated control bone marrow, or Pc 4-sensitized BM that was photoirradiated with 0, 6, 12 or 18 J/cm^2, respectively. Each mouse received 250,000 donor BM cells.
Six months after transplantation, peripheral blood was obtained by tail-vein puncture and 40 μL samples were aliquoted into tubes that contained the following antibody cocktails. The first tube contained 4 μL of phycoerythrin (PE) conjugated anti-Ly-5.1 antibody (CD45.1, kind gift from Dr. JoseCarlos Segovia) and 1 μL of fluorescein (FITC) conjugated anti-B220 antibody (B cells; Pharmingen, San Diego, Calif.), the second tube contained 4 μL anti-Ly-5.1^PE and 1 μL of anti-CD3^FITC (T cells; Pharmingen), and the third tube contained 4 μL anti-Ly-5.1^PE and 1 μL of anti-Gr-1^FITC (granulocytes; Pharmingen). Following a 20 minute incubation at room temperature, 2 mL of FACS Lysing Solution (Becton Dickinson (BD), San Jose, Calif.) was added to each sample followed by gentle mixing. After 10 minutes the samples were centrifuged and the pellets were resuspended in 3 mL PBS. After centrifugation, the washed pellets were resuspended in 2% vol/vol formalin--PBS pH 7.4 and the samples were analyzed by flow cytometry within 3 hours after staining.

The mark [4] stands for this setting: 15 nM, 1.5×10^6 cells/ml during incubation.
[5] abbreviates: 15 nM, 1.5×10^7 cells/ml during incubation.
[6] abbreviates: 1.5×10^6 cells/ml during incubation.
[7] abbreviates: 1.5×10^7 cells/ml during incubation.

“Also recorded” adds a separate entry of the source.

The values below come from US6159733A, “Method for photoinactivating malignant cells” (priority 1996, dated 2000).

With `CN(C)CCC[Si](C)(C)O[Si]1(O)n2c3c4ccccc4c2N=C2N=C(N=c4c5ccccc5c(n41)=NC1=NC(=N3)c3ccccc31)c1ccccc12` (stereo not drawn) [Pc 4, hydroxysiloxy-dimethylpropyl-N-dimethyl silicon phthalocyanine], the “Pc 4 content” value in data set [1] (setting [4]) worked out at 136 ± 7.8 Mean fluorescence/cell; in data set [1] (setting [5]), 68 ± 8.2 Mean fluorescence/cell; in data set [2] (setting [6]) it was 109 ± 6.5 Mean fluorescence/cell; in data set [2] (setting [7]) it was 54 ± 6.9 Mean fluorescence/cell. For the same compound, the “Pc 4 content per cell volume” value amounted to 0.44 Mean fluorescence/μm^3 in data set [1] (setting [4]), 0.22 Mean fluorescence/μm^3 in data set [1] (setting [5]), 0.50 Mean fluorescence/μm^3 in data set [2] (setting [6]) and 0.23 Mean fluorescence/μm^3 in data set [2] (setting [7]). Further, the “cell concentration at which uptake reached a plateau” value in data set [1] (15 nM, BM progenitor cells) is listed as 8.0×10^5 cells/mL. Besides, in data set [1] (1.5×10^7 cells/mL (p=0.07)), the “difference in Pc 4 content, committed progenitors vs ABE-8.1/2” value was “not quite significant”. In addition, the “difference in Pc 4 content, committed progenitors vs BC3A” value in data set [1] (1.5×10^7 cells/mL (p=0.29)) is recorded as “not significant”. For the same compound, the “reduction of Pc 4 uptake” value in data set [1] (BM progenitors, from 8.0×10^5 to 1.5×10^7 cells/mL) was determined as 1.8 fold. In data set [2] (1.5×10^7 cells/mL (p=0.26)), the “difference in Pc 4 content, pluripotent stem cells vs committed progenitors” value was “not significant”. Moreover, the “surviving fraction of human cells” value in the data set on BFU-E is 0.9. Moreover, in data set [3] (1.5×10^7 cells/mL, 18 J/cm^2), the “long term repopulating (LTR) ability / survival of the pluripotent stem cells” value is listed as “not affected by the photoinactivation procedure; also recorded: no adverse affect”. Besides, the mortality result in data set [3] (pilot, lethally irradiated (8.5 Gy), 70,000 untreated or treated donor BM cells) is “All mice that received 70,000 cells died within one month”. Also, in data set [3] (pilot, lethally irradiated (8.5 Gy), 250,000 donor cells (untreated or treated 15 nM, 1.5×10^7 cells/mL, 18 J/cm2), after 4 months, most mice), the “Ly-5.1 chimerism in peripheral blood granulocytes, T cells and B cells” value is greater than 70%. Also, in data set [3] (six months, 18 J/cm^2), the “difference in chimerism levels from untreated BM group” value is reported as “not significant”. Also, the “chimerism level, granulocytes” value in data set [3] (six months, 250,000 BM cells, 18 J/cm^2, untreated BM 0.49±0.01 (p=0.42)) is given as 0.38±0.08. Moreover, the “chimerism level, B cells” value in data set [3] (six months, 250,000 BM cells, 18 J/cm^2, untreated BM 0.50±0.12 (p=0.53)) is listed as 0.39±0.11. For the same compound, the “chimerism level, T cells” value in data set [3] (six months, 250,000 BM cells, 18 J/cm^2, untreated BM 0.72±0.07 (p=0.42)) is reported as 0.60±0.12. In addition, the “mice died two months after transplant” value is on record as 1/6 in data set [3] (Pc 4, 0 J/cm^2); 1/6 in data set [3] (Pc 4, 6 J/cm^2); 1/6 in data set [3] (Pc 4, 18 J/cm^2).
